Like-named read-outs stand apart in the source and are kept apart here.
Legend:
gastric acid secretion [1] = test: Inhibiting effect of gastric acid secretion, perfused stomach, pentagastrin-stimulated (Ghosh & Schild); assay type: in vivo, male SD rat; conditions: urethane-anesthetized SD rat, pentagastrin 0.05 μg/kg/min, injected through femoral vein; ratio of area index to that of PGE2
Protocol: (§1) Inhibiting effect of gastric acid secretion
A male SD rat was incised in the abdomen under anesthesia by urethane and the lumen of a stomach was perfused with a physiolosical saline solution through a double-cannula inserted into a lumen of the stomach. A pH of a draining gastric acid was monitored using a pH-meter (M. Ghosh, H. Schild, Br. J. Pharmacol. 13, 54 (1958)). The secretion of gastric acid was stimulated by a continuous infusion of the pentagastrin at a rate of 0.05 μg/kg/min. When the pH of gastric acid became stable value of about 4, the compound was injected through a femoral vein. As an index of the inhibiting effect of gastric acid secretion by the compound was calculated from the area surrounded by the curve drawn by the time course of the pH of gastric acid, from the point increase by the injection of the compound and to the point it came back to baseline. The index thus obtained was compared to that of PGE2 and a ratio therebetween was shown in Table 3, as a relative effect of the compound.

corpus of stomach = test: Gastric cytoprotection effect (lesion length / ulcer index after oral 0.2N NaOH); assay type: in vivo; conditions: 1 h, 30 min before oral 0.2N NaOH, lesion measured one hour later, read-out: Gastric cytoprotection effect ED50 (dose reducing the sore to 50% of control)
Excerpt: Gastric cytoprotection effect
Gastric cytoprotection effect was studied according to the method by A. Robert (Gastroenterology, 77(3), 443, (1979)). Thirty min. after oral administration of the compound according to the invention, 0.2N NaOH was orally applied to the animals.
One hour later, the animals were killed under anesthesia by chloroform. The stomach was removed and fixed in a solution of 5% formalin. After fixation, the stomach was cut along the greater curvature. A total length of the lesion appearing on the corpus of stomach was then measured and served as an ulcer index.
The dose of the compound which may reduce the sore to 50% of that of the control was designated as ED50.
The gastric cytoprotection effects of the compounds according to the invention, which is thus represented by ED50, are summarized in Table 1.

[2] = test system: blood pressure of the carotid; test: Hypotensive effect (carotid blood pressure, anesthetized rat); assay type: in vivo; conditions: chloralose-anesthetized Wistar male rat, injected via catheter connected to femoral artery; read-out: Hypotensive effect ED25 (dose reducing blood pressure by 25 mmHg)
Protocol: A catheter was inserted to a carotid of the Wistar male rat under chloralose anesthesia. Another end of the catheter was connected to a polygraph with a pressure-transducer to detect a blood pressure of the carotid. The compound was injected via catheter connected to a femoral artery. The dose of the compound which may reduce the blood pressure in an amount of 25 mmHg was designated as ED25.

gastric acid secretion [3] = test: Inhibiting effect of gastric acid secretion, pylorus-ligated rat (Shay); assay type: in vivo; conditions: pylorus ligation, injected into duodenum, 5 hours
Protocol: as §1
Under anesthesia by ether, the abdomen of the rat was incised in its median and a pylorus was ligated with silk thread according to Shay (Gastroenterology 5, 43 (1945)). Simultaneously, the compound was injected into a duodenum of the rat and then the incision was closed.
Five hours later, the median-incision of the abdomen was again performed and the esophargus was ligated and then the whole stomach was removed.
The stomach was cut along a greater curvature and the contents thereof was transferred into a graduated centrifuge tube. After centrifugation at 3,000 rpm for 10 min., a volume of a gastric juice was measured and a part of its supernatant was titrated to pH 7 with 0.1N NaOH using a pH-stat (Radio meter).
The mean dose of the compounds which may reduce the volume of gastric juice (ml) and acidity (mEq/ml) of a group of five animals to 50% of that of the controls were designated respectively as ED50.

[4] = acidity (mEq/ml) to 50% of controls, read-out: Inhibiting effect of gastric acid secretion ED50, Acidity
[5] = volume (ml) to 50% of controls, read-out: Inhibiting effect of gastric acid secretion ED50, Volume of the gastric juice

**Q.** How did the “Inhibiting effect of gastric acid secretion, Relative effect (PGE2 = 1)” value (“Inhibiting effect … Relative effect (PGE2 = 1)” for short) (gastric acid secretion [1]) turn out when CCCC(C)(C)[C@H](O)/C=C/[C@@H]1[C@H]2c3cccc(OCC(=O)O)c3O[C@H]2C[C@H]1O (relative stereo) [Compound 176, 16,16-Dimethyl-2,5,6,7,20-pentanor-4-oxa-4,8-inter-m-phenylene PGI2] was run?
**A.** The value was 48.

**Q.** What about the ED50 (corpus of stomach) of the same molecule?
**A.** The ED50 was 0.0041 mg/kg.

**Q.** What about the ED (25 mmHg) [2] of the same molecule?
**A.** Its ED (25 mmHg) is 0.00069 mg/kg.

**Q.** Which “Inhibiting effect … Relative effect (PGE2 = 1)” value (gastric acid secretion [1]) does the source give for CCCCC(C)(C)[C@H](O)/C=C/[C@@H]1[C@H]2c3cccc(OCC(=O)O)c3O[C@H]2C[C@H]1O (relative stereo) [Compound 180, 16,16-Dimethyl-2,5,6,7-tetranor-4-oxa-4,8-inter-m-phenylene PGI2] here?
**A.** Its value is 72.

**Q.** And the ED50 (corpus of stomach)?
**A.** The ED50 was 0.0029 mg/kg.

**Q.** And the ED (25 mmHg) [2]?
**A.** The ED (25 mmHg) was 0.00069 mg/kg.

**Q.** What about the ED50 (gastric acid secretion [3]; [4]) of the same molecule?
**A.** Its ED50 is 1.78 mg/kg.

**Q.** And the ED50 (gastric acid secretion [3]; [5])?
**A.** Its ED50 is 0.51 mg/kg.

**Q.** With CC(C)C(C)(C)[C@H](O)/C=C/[C@@H]1[C@H]2c3cccc(OCC(=O)O)c3O[C@H]2C[C@H]1O (relative stereo) [Compound 196, 16,16,17-Trimethyl-2,5,6,7,19,20-hexanor-4-oxa-4,8 inter-m-phenylene PGI2] as the molecule, how does the ED50 (corpus of stomach) read?
**A.** Its ED50 is 0.15 mg/kg.

**Q.** Which “Inhibiting effect … Relative effect (PGE2 = 1)” value (gastric acid secretion [1]) does the source give for CC(C)(C1CCCCC1)[C@H](O)/C=C/[C@@H]1[C@H]2c3cccc(OCC(=O)O)c3O[C@H]2C[C@H]1O (relative stereo) [Compound 248, 16-cyclohexyl-16-methyl-2,5,6,7,18,19,20-heptanor-4-oxa-4,8-inter-m-phenylene PGI2] here?
**A.** The value was 13.

**Q.** What about the ED50 (corpus of stomach) of the same molecule?
**A.** The ED50 was 0.0311 mg/kg.

**Q.** What about the ED (25 mmHg) [2] of the same molecule?
**A.** Its ED (25 mmHg) is 0.011 mg/kg.

**Q.** How did the “Inhibiting effect … Relative effect (PGE2 = 1)” value (gastric acid secretion [1]) turn out when CC(C)(CC1CCCCC1)[C@H](O)/C=C/[C@@H]1[C@H]2c3cccc(OCC(=O)O)c3O[C@H]2C[C@H]1O (relative stereo) [Compound 252, 17-cyclohexyl-16,16-dimethyl-2,5,6,7,18,19,20-heptanor-4-oxa-4,8-inter-m-phenylene PGI2] was run?
**A.** The value was 13.

**Q.** And the ED50 (corpus of stomach)?
**A.** The ED50 was 0.0065 mg/kg.

**Q.** And the ED (25 mmHg) [2]?
**A.** The ED (25 mmHg) was 0.0056 mg/kg.

**Q.** For CC(C)(c1ccccc1)[C@H](O)/C=C/[C@@H]1[C@H]2c3cccc(OCC(=O)O)c3O[C@H]2C[C@H]1O (relative stereo) [Compound 293, 16-methyl-16-phenyl-2,5,6,7,18,19,20-heptanor-4-oxa-4,8-inter-m-phenylene PGI2], which “Inhibiting effect … Relative effect (PGE2 = 1)” value (gastric acid secretion [1]) is on record?
**A.** Its value is 4.8.

**Q.** What about the ED (25 mmHg) [2] of the same molecule?
**A.** The ED (25 mmHg) was 0.046 mg/kg.

**Q.** How did the “Inhibiting effect … Relative effect (PGE2 = 1)” value (gastric acid secretion [1]) turn out when COCC(C)(C)[C@H](O)/C=C/[C@@H]1[C@H]2c3cccc(OCC(=O)O)c3O[C@H]2C[C@H]1O (relative stereo) [Compound 301, 16,16-Dimethyl-2,5,6,7,20-pentanor-4,18-dioxa-4,8-inter-m-phenylene PGI2] was run?
**A.** The value was 16.

**Q.** What about the ED50 (corpus of stomach) of the same molecule?
**A.** Its ED50 is 0.0385 mg/kg.

**Q.** What about the ED (25 mmHg) [2] of the same molecule?
**A.** The ED (25 mmHg) was 0.00036 mg/kg.

**Q.** For O=C(O)COc1cccc2c1O[C@H]1C[C@@H](O)[C@H](/C=C/[C@@H](O)COc3ccccc3)[C@@H]21 (relative stereo) [Compound 313, 16-Phenoxy-2,5,6,7,17,18,19,20-octanor-4-oxa-4,8-inter-m-phenylene PGI2], which “Inhibiting effect … Relative effect (PGE2 = 1)” value (gastric acid secretion [1]) is on record?
**A.** The value was 53.

**Q.** And the ED50 (corpus of stomach)?
**A.** Its ED50 is 0.0211 mg/kg.

**Q.** And the ED (25 mmHg) [2]?
**A.** The ED (25 mmHg) was 0.0021 mg/kg.

**Q.** What about the ED50 (gastric acid secretion [3]; [4]) of the same molecule?
**A.** Its ED50 is 0.31 mg/kg.

**Q.** What about the ED50 (gastric acid secretion [3]; [5]) of the same molecule?
**A.** The ED50 was 0.42 mg/kg.

**Q.** For CC(C)(Oc1ccccc1)[C@H](O)/C=C/[C@@H]1[C@H]2c3cccc(OCC(=O)O)c3O[C@H]2C[C@H]1O (relative stereo) [Compound 317, 16-Methyl-16-phenoxy-2,5,6,7,18,19,20-heptanor-4-oxa-4,8-inter-m-phenylene PGI2], which “Inhibiting effect … Relative effect (PGE2 = 1)” value (gastric acid secretion [1]) is on record?
**A.** Its value is 62.

**Q.** What about the ED50 (corpus of stomach) of the same molecule?
**A.** Its ED50 is 0.00049 mg/kg.

**Q.** And the ED (25 mmHg) [2]?
**A.** The ED (25 mmHg) was 0.0013 mg/kg.

**Q.** For CC(C)(Oc1ccccc1)[C@H](O)/C=C/[C@@H]1[C@H]2c3cccc(C#CC(=O)O)c3O[C@H]2C[C@H]1O (relative stereo) [Compound 371, 16-Methyl-16-phenoxy-2,5,6,7,18,19,20-heptanor-3,3,4,4-tetradehydro-4,8-inter-m-phenylene PGI2], which “Inhibiting effect … Relative effect (PGE2 = 1)” value (gastric acid secretion [1]) is on record?
**A.** Its value is 8.

**Q.** What about the ED50 (corpus of stomach) of the same molecule?
**A.** Its ED50 is 0.0279 mg/kg.

**Q.** What about the ED (25 mmHg) [2] of the same molecule?
**A.** Its ED (25 mmHg) is 0.0024 mg/kg.

**Q.** What about the ED50 (gastric acid secretion [3]; [4]) of the same molecule?
**A.** The ED50 was 4.6 mg/kg.

**Q.** What about the ED50 (gastric acid secretion [3]; [5]) of the same molecule?
**A.** Its ED50 is greater than 10 mg/kg.

**Q.** CCCCC[C@H](O)/C=C/[C@H]1[C@H](O)CC(=O)[C@@H]1C/C=C\CCCC(=O)O [PGE2, reference compound] was tested. Which “Inhibiting effect … Relative effect (PGE2 = 1)” value (gastric acid secretion [1]) did it give?
**A.** Its value is 1.
